Measurements published in patent US20170356048A1, “METHOD FOR PREDICTING RECEPTIVITY TO TARGETED ANTICANCER DRUG” (CBSBIOSCIENCE INC., priority 2014, published 2017).

How the values were obtained:
hepatocellular carcinoma = conditions: cited from earlier work
liver cancer = experiment: Rate of response to sorafenib treatment (reduction in tumor size by CT and MRI, mRECIST) in liver cancer patients stratified by risk score or marker gene expression; assay type: in vivo, human
Description: In the following manner, RNA was extracted from each of the tissues and synthesized into cDNA.
The risk scores of a total of 29 liver cancer patients were calculated, and the risk score distribution of responders to sorafenib and the risk score distribution of non-responders to sorafenib were examined. Herein, whether or not sorafenib would have a therapeutic effect was determined based on the degree of reduction in tumor size by CT and MRI imagings, and criteria for the determination followed mRECIST (modified Response Evaluation Criteria in Solid tumors) criteria version 1.1.
In addition, after stratification of the liver cancer patients by classification, the rate of response to sorafenib treatment was examined in order to confirm improvement in clinical responses, and the results of the examination are shown in Table 5 below.

Which treatment rate (hepatocellular carcinoma; hepatocellular carcinoma, unselected patients) does the source give for `CNC(=O)c1cc(Oc2ccc(NC(=O)Nc3ccc(Cl)c(C(F)(F)F)c3)cc2)ccn1` [sorafenib] here?
Its treatment rate is 2-3%.

What about the therapeutic effect (hepatocellular carcinoma; known value, NEJM2008 359(4):378-390) of the same compound?
The therapeutic effect was “about 2.3%”.

What about the “Response rate (%)” value (liver cancer; liver cancer patients with CDH1 expression ≦0.0067, 3 responders, 13 non-responders) of the same compound?
Its value is 18.75%.

What about the “Response rate (%)” value (liver cancer; liver cancer patients with ID2 expression ≦0.4965, 3 responders, 12 non-responders) of the same compound?
Its value is 20.0%.

And the “Response rate (%)” value (liver cancer; liver cancer patients with MMP9 expression >0.0433, 3 responders, 15 non-responders)?
The value was 16.67%.

What about the “Response rate (%)” value (liver cancer; liver cancer patients with TCF3 expression >0.3711, 2 responders, 1 non-responder) of the same compound?
The value was 66.67%.

And the “Response rate (%)” value (liver cancer; liver cancer patients with risk score (CDH1, ID2, MMP9, TCF3) >87.59, 3 responders, 8 non-responders)?
The value was 27.27%.
